Data on 18 molecules can be found in ChEMBL document CHEMBL3774371, “Pyrrolidinones as Modulators of Neurogenesis” (2016).

This experiment concerns NSC. The experiment can be described thus: Neurogenic activity in human NSC assessed as increase in cells measured as ATP level after 4 days by Cell titre glo assay. Type of experiment: functional.

`O=C1C(c2ccc(F)cc2)CCN1c1ccc(-c2cn[nH]c2)cc1` (stereo not drawn): the EC150 is 0.0417 µM.

For `COc1cc(N2CCN(Cc3cccc(C(F)(F)F)c3)C2=O)ccc1-c1cn[nH]c1`, the EC150 was determined as 0.0086 µM.

As to `COc1cccc(CC2CCN(c3ccc(-c4cn[nH]c4)c(OC)c3)C2=O)c1` (stereo not drawn), the EC150 amounted to 0.0239 µM.

As to `CCOc1cc(N2CCN(Cc3cccc(OC)c3)C2=O)ccc1-c1cn[nH]c1`, the EC150 was 0.8349 µM.

As for `COc1cc(N2CCC(c3ccccc3)C2=O)ccc1-c1cnco1` (stereo not drawn), the EC150 was found to be 0.4712 µM.

In the case of `O=C1C(c2ccc(Cl)cc2)CCN1c1ccc(-c2cn[nH]c2)cc1` (stereo not drawn), the EC150 was found to be 0.384 µM.

In the case of `COc1cc(N2CCC(c3ccccc3Cl)C2=O)ccc1-c1cnco1` (stereo not drawn), the EC150 amounted to 0.6783 µM.

For the molecule `O=C1C(c2cccc(Cl)c2)CCN1c1ccc(-c2cn[nH]c2)cc1` (stereo not drawn), the EC150 is 0.2304 µM.

Turning to `COc1cc(N2CCC(c3cccc(F)c3)C2=O)ccc1-c1cn[nH]c1` (stereo not drawn), the EC150 is 0.0776 µM.

Turning to `COc1cccc(C2CCN(c3ccc(-c4cn[nH]c4)cc3)C2=O)c1` (stereo not drawn), the EC150 stood at 0.0405 µM.

`CCC1(c2ccccc2)CCN(c2ccc(-c3cnco3)c(OC)c2)C1=O` (stereo not drawn): the EC150 was found to be 3.2257 µM.

In the case of `COc1cc(N2CCN(Cc3cccc(OC(F)(F)F)c3)C2=O)ccc1-c1cn[nH]c1`, the EC150 was 0.0092 µM.

For `COc1cc(N2CCN(Cc3ccncc3)C2=O)ccc1-c1cn[nH]c1`, the EC150 came to 0.042 µM.

In the case of `CCOc1cccc(CN2CCN(c3ccc(-c4cn[nH]c4)c(OC)c3)C2=O)c1`, the EC150 came to 0.0739 µM.

Regarding `CCOc1cc(N2CCN(CCc3ccccc3Cl)C2=O)ccc1-c1cn[nH]c1`, the EC150 stood at 0.1358 µM.

`CCOc1cc(N2CCN(CCc3ccccc3OC)C2=O)ccc1-c1cn[nH]c1`: the EC150 turned out to be 1.9784 µM.

For the molecule `COc1cccc(CN2CCN(c3ccc(-c4cn[nH]c4)c(F)c3)C2=O)c1`, the EC150 amounted to 0.0157 µM.

Take `COc1cc(N2CCCN(Cc3ccccc3Cl)C2=O)ccc1-c1cn[nH]c1`: the EC150 came out at 1.9918 µM.
